Assay results published in PubChem BioAssay (NCI).
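Interpolation was linear, between the two tested concentrations surrounding the appropriate level; five concentrations were tested over 48 hours in 96-well plates. TGI denotes the concentration required for complete inhibition of growth.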

Columns and labels:
Experiment in all cases: growth of human tumour cells (NCI), 48 h
[1] = system: NCI-H23 lung
[2] = system: PC-3 prostate
[3] = system: K-562 leukemia
[4] = system: CCRF-CEM leukemia
[5] = system: IGROV1 ovarian
[6] = system: A498 renal
[7] = system: UACC-257 melanoma
[8] = system: SK-OV-3 ovarian
[9] = system: SN12C renal
[10] = system: COLO 205 colon
[11] = system: SR leukemia
[12] = system: T-47D breast
[13] = system: HS 578T breast
[14] = system: SK-MEL-2 melanoma
[15] = system: MCF7 breast
[16] = system: SF-268 CNS
[17] = system: EKVX NSCLC
[18] = system: ACHN renal
[19] = system: SF-295 CNS
[20] = system: OVCAR-4 ovarian
[21] = system: MDA-MB-231 breast
[22] = system: HCT-116 colon
[23] = system: SNB-75 CNS
[24] = system: SK-MEL-28 melanoma
[25] = system: HT29 colon
[26] = system: OVCAR-8 ovarian
[27] = system: OVCAR-5 ovarian
[28] = system: MOLT-4 leukemia
[29] = system: SW-620 colon
[30] = system: U251 CNS
[31] = system: CAKI-1 renal
[32] = system: HCT-15 colon
[33] = system: RXF 393 renal
[34] = system: SK-MEL-5 melanoma
[35] = system: UO-31 renal
[36] = system: SF-539 CNS
[37] = system: BT-549 breast
[38] = system: HOP-62 NSCLC
[39] = system: NCI-H522 lung
[40] = system: OVCAR-3 ovarian
[41] = system: MALME-3M melanoma
[42] = system: HCC-2998 colon
[43] = system: HL-60(TB) leukemia
[44] = system: A549 NSCLC
[45] = system: NCI-H460 lung
[46] = system: M14 melanoma
[47] = system: SNB-19 CNS
[48] = system: RPMI-8226 leukemia
[49] = system: NCI/ADR-RES ovarian
[50] = system: MDA-N
[51] = system: NCI-H226 lung
[52] = system: KM12 colon
[53] = system: MDA-MB-435
[54] = system: DU-145 prostate
[55] = system: HOP-92 NSCLC
[56] = system: 786-0 renal
[57] = system: LOX IMVI melanoma
[58] = system: UACC-62 melanoma
[59] = system: TK-10 renal

Measured: TGI

CC(C)/C(Cl)=N/OC(=O)Nc1ccc(OC(F)(F)F)cc1
33.6 µM: [49]
8.44 µM: [11]
19.6 µM: [56]
26.6 µM: [7] | [24]
35.9 µM: [25]
22.9 µM: [17]
29.8 µM: [37]
33.5 µM: [26]
30.5 µM: [5] | [42]
3.27 µM: [29]
5.89 µM: [57]
6.5 µM: [41]
9.55 µM: [31]
29 µM: [23]
25.8 µM: [12]
34.8 µM: [44]
30.9 µM: [1]
31.5 µM: [54]
39.1 µM: [16]
8.97 µM: [48]
29.3 µM: [59]
28 µM: [15]
23.5 µM: [51]
3.71 µM: [55]
43 µM: [13]
31.7 µM: [9] | [38]
12 µM: [46]
31.3 µM: [36]
25.1 µM: [18]
33.1 µM: [19]
31.6 µM: [47]
2.81 µM: [39]
30.3 µM: [52]
21.3 µM: [34]
30.2 µM: [58]
32.5 µM: [21]
16.7 µM: [20]
3.26 µM: [10]
31.2 µM: [30] | [45]
25.3 µM: [53]
31.9 µM: [8]
5.08 µM: [4]
> 77.9 µM: [28]
32.6 µM: [40]
18 µM: [22]
18.8 µM: [32]
5.76 µM: [43]
23.8 µM: [35]
18.3 µM: [33]
30.4 µM: [2]
26.2 µM: [50]
28.1 µM: [14]
4.15 µM: [3]
29.2 µM: [27]
32.9 µM: [6]

CCOC(=O)NC(Nc1c(F)c(F)c(F)c(F)c1F)(C(F)(F)F)C(F)(F)F
not listed: [20] | [25]
> 100 µM: all other assays above

Cc1ccc(NC(=O)/C(Cc2cc(=O)oc3cc(O)ccc23)=N\NC(=O)C[N+](C)(C)C)cc1C
> 100 µM: all assays above
